Reference: patent US20240164378A1, “SYNERGISTIC PLANT GROWTH STIMULANT COMPOSITIONS OF POTASSIUM MONO/DI-FORMATE WITH CARBOXYLIC ACIDS” (FERTIS INDIA PVT. LTD., priority 2021, published 2024)

Columns and labels:
paddy grains [1] = experiment: Total phenol estimation in paddy grains; type: in vivo; conditions: treatment applied with farmer practice (NPK)
paddy grains [2] = experiment: Total protein content in paddy grains; type: in vivo; conditions: treatment applied with farmer practice (NPK)

Structure (SMILES)	Total phenol Conc ppm in paddy grains (paddy grains [1])	% of Protein (total protein content in paddy grains) (paddy grains [2])
C=C1C[C@]23C[C@@]1(O)CC[C@H]2[C@@]12C=C[C@H](O)[C@@](C)(C(=O)O1)[C@H]2[C@@H]3C(=O)O [Gibberellic acid]	16.7 ppm	0.008%
O=C[O-].[K+] [Potassium formate]	19.88 ppm	0.011%
CC1=CC(=O)CC(C)(C)[C@@]1(O)/C=C/C(C)=C\C(=O)O [Abscisic acid]	18.78 ppm	0.008%
O=CO.O=C[O-].[K+] [Potassium diformate]	19.97 ppm	0.012%
COc1ccc2[nH]cc(CCNC(C)=O)c2c1 [Melatonin]	17.9 ppm	
